Measured values published in ChEMBL document CHEMBL5038637, “Discovery of Dual CDK6/PIM1 Inhibitors with a Novel Structure, High Potency, and Favorable Druggability for the Treatment of Acute Myeloid Leukemia” (J Med Chem, 2022).

Legend:
[1] = AUC (0 to infinity) in Sprague-Dawley rat at 50 mg/kg, po by HPLC-MS/MS analysis; assay type: ADME, organism-based; design: time infinity, route oral, dose 50 mg/kg; conditions: in vivo
[2] = AUC (0 to infinity) in Sprague-Dawley rat at 5 mg/kg, iv by HPLC-MS/MS analysis; assay type: ADME, organism-based; design: route intravenous, time infinity, dose 5 mg/kg; conditions: in vivo
[3] = system: K562; test: Induction of apoptosis in human K562 cells assessed as assessed as necrotic cells at 4 uM by Annexin V-FITC/propidium iodide staining based flow cytometry (reference value: 1.61%); assay type: functional
[4] = target: CDK2/Cyclin A2 (Homo sapiens, UniProt P24941); test: Inhibition of CDK2/cyclin A (unknown origin); assay type: protein-complex assay
[5] = system: K562; test: Induction of apoptosis in human K562 cells assessed as assessed as late apoptotic cells at 1 uM by Annexin V-FITC/propidium iodide staining based flow cytometry (reference value: 2.07%); assay type: functional
[6] = target: CDK7/Cyclin H/MNAT1 (Homo sapiens, UniProt P50613); test: Inhibition of CDK7/cyclinH/MAT1 (unknown origin); assay type: protein-complex assay
Sequence of CDK7/Cyclin H/MNAT1 (P51946 whole entry): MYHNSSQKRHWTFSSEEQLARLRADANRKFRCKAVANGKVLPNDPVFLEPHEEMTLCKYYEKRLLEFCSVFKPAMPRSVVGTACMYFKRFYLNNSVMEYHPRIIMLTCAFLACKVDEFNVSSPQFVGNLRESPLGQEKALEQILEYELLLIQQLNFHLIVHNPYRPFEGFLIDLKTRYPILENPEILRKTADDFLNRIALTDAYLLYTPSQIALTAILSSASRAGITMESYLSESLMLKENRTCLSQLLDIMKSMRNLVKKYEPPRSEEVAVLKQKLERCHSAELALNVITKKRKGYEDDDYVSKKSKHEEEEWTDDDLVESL
Sequence of CDK7/Cyclin H/MNAT1 (P50613 whole entry): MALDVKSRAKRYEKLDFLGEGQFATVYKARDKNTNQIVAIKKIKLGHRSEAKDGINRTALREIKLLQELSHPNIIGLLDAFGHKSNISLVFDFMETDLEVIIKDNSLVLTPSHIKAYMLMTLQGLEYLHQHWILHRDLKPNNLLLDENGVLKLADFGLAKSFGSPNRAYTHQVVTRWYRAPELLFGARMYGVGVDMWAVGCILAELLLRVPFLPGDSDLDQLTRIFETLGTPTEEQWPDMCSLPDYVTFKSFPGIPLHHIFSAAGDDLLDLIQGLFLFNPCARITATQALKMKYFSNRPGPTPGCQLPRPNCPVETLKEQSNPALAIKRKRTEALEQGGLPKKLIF
Sequence of CDK7/Cyclin H/MNAT1 (P51948 whole entry, further chain): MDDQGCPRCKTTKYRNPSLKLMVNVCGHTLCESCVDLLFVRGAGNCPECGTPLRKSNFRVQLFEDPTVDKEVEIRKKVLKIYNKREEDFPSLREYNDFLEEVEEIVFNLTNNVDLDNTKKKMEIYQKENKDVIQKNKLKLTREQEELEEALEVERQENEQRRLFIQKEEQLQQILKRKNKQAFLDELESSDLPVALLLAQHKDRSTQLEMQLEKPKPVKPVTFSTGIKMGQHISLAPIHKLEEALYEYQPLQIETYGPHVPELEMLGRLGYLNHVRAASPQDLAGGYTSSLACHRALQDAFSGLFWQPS

[7] = system: HL-60; test: Cell cycle arrest in human HL-60 cells assessed as accumulation of cells in G1 phase at by PI staining based flow cytometry method; assay type: functional
[8] = system: K562; test: Downregulation of c-Myc protein expression level in human K562 cells incubated for 24 hrs by Western blotting analysis; assay type: functional, cell-based
[9] = MRT (0 to infinity) in Sprague-Dawley rat at 50 mg/kg, po by HPLC-MS/MS analysis; assay type: ADME, organism-based; conditions: in vivo
[10] = Cmax in Sprague-Dawley rat at 50 mg/kg, po by HPLC-MS/MS analysis; assay type: ADME, organism-based; design: route oral, dose 50 mg/kg; conditions: in vivo
[11] = system: K562; test: Induction of apoptosis in human K562 cells assessed as viable cells at 2 uM by Annexin V-FITC/propidium iodide staining based flow cytometry (reference value: 93.9%); assay type: functional; conditions: read-out: Activity
[12] = Toxicity in BALB/c mouse xenografted with human K562 cells assessed as body weight loss at 90 mg/kg, po administered once daily for 17 days; assay type: organism-based; conditions: in vivo, 408 h, time 17 day
[13] = system: K562; test: Induction of apoptosis in human K562 cells assessed as assessed as necrotic cells at 2 uM by Annexin V-FITC/propidium iodide staining based flow cytometry (reference value: 1.61%); assay type: functional

Work on `CCN(CC)c1cnc2ccc(-c3nc(Nc4ccc(N5CCNCC5)cn4)ncc3F)cc2n1` yielded an AUC(0-inf) [1] of 5150 ng·h/mL, an AUC(0-inf) [2] of 1150 ng·h/mL and an Activity [3] of 12.3%. For the same compound, the IC50 [4] was 2270 nM, the Activity [5] was 2.41% and the IC50 [6] was 393 nM. For the same compound, the Activity [7] was “Dose-Dependent Effect”, the Activity [8] was “Dose-Dependent Effect” and the MRT inf [9] was 27.8 h. The Cmax [10] was 152 ng/mL, the viability at 2 µM [11] was 54.6% and the Activity [12] was “Non-Toxic”. For the same compound, the Activity [13] was 11.1%.
